In the assay the target is TACE (Homo sapiens (Human), UniProt P78536). Briefly: TACE inhibition test (in vitro). The assay is classed as biochemical. To be noted: fluorescent synthetic substrate, 37° C., 1.5 hours. The method, then: The nucleotide sequence of TACE has been reported by Moss et al. (Moss, M. L. et al., Nature 1997, 385, 733-736). Accordingly, the cDNA of TACE was obtained according to the prescribed method from THP-1 cells or the like, and then incorporated the cDNA into an expression vector. Next, this vector was transformed into mammalian cells or insect cells, and TACE expression was obtained.
Chain of TACE (P78536 215-824): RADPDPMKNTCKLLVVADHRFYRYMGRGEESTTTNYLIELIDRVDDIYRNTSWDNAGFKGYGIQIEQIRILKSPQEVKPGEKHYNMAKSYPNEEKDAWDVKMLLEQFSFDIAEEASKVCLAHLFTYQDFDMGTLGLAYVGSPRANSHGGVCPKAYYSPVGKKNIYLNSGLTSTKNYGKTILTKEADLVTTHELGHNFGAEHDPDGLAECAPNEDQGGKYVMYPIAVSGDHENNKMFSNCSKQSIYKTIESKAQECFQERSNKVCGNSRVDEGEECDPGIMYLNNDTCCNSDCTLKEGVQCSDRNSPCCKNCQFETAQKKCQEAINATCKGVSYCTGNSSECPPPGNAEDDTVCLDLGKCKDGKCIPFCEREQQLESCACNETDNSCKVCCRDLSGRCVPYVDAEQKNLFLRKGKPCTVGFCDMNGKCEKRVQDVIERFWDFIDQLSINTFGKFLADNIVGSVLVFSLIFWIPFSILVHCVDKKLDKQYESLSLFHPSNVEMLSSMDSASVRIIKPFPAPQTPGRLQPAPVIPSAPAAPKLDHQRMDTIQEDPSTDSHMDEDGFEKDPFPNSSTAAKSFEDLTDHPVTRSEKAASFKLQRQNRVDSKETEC
The TACE inhibition test was carried out by measuring TACE activity in the presence and the absence of the test substance using the thus-obtained TACE as an enzyme, and a fluorescent synthetic substrate Nma(N-methylanthranilic acid)-Leu-Ala-Gln-Ala-Val-Arg-Ser-Ser-Lys(Dnp(dinitrophenyl))-D-Arg-NH2 (SEQ ID NO: 1) including the TACE-cleaved sequence of a membrane-bound TNF as a substrate. The TACE inhibition test method is shown below.
Namely, 90 μL of an enzyme solution prepared with an assay buffer A (50 mM tris-hydrochloric acid buffer (pH 7.5) including 200 mM sodium chloride, 5 mM calcium chloride, 10 μM zinc sulfate, and 2 mg/mL bovine serum albumin) and 90 μL of a fluorescent synthetic substrate prepared with an assay buffer B (50 mM tris-hydrochloric acid buffer (pH 7.5) including 200 mM sodium chloride, 5 mM calcium chloride, 10 μM zinc sulfate, and 0.05% PLURONIC F-68) were mixed together, and reacted at 37° C. for 1.5 hours. Enzyme activity was then determined by measuring with a fluorescence intensity meter (Labsystems, Fluoroskan Ascent) at an excitation wavelength of 355 nm and a measurement wavelength of 460 nm.
From the enzyme activity in the presence or the absence of the test substance, the inhibition rate was determined, and the 50% inhibitiory concentration (IC50) of the test substance was calculated.
`Cc1cccn(CC2(c3ccc(C#CC(C)(C)C)cc3)NC(=O)NC2=O)c1=O` (stereo not drawn) [Compound I-33, 5-[4-(3,3-dimethylbut-1-yn-1-yl)phenyl]-5-[(3-methyl-2-oxopyridin-1(2H)-yl)methyl]imidazolidine-2,4-dione]: the IC50 is < 100 nM.

Regarding `Cc1ccc(Oc2ccc(C3(Cn4cccc(C)c4=O)NC(=O)NC3=O)cc2)cc1` (stereo not drawn) [Compound I-34, 5-[(3-methyl-2-oxopyridin-1(2H)-yl)methyl]-5-[4-(p-tolyloxy)phenyl]imidazolidine-2,4-dione], the IC50 is < 100 nM.

As for `Cc1ccccc1Oc1ccc(C2(Cn3cccc(C)c3=O)NC(=O)NC2=O)cc1` (stereo not drawn) [Compound I-35, 5-[(3-methyl-2-oxopyridin-1(2H)-yl)methyl]-5-[4-(o-tolyloxy)phenyl]imidazolidine-2,4-dione], the concentration for half-maximal inhibition (IC50) was < 100 nM.

Consider `Cc1cc(C2(Cn3cccc(C)c3=O)NC(=O)NC2=O)ccc1OC1CCCC1` (stereo not drawn) [Compound I-39, 5-[4-(cyclopentyloxy)-3-methylphenyl]-5-[(3-methyl-2-oxopyridin-1(2H)-yl)methyl]imidazolidine-2,4-dione], for which the IC50 was < 100 nM.

In the case of `Cc1cccn(CC2(c3ccc(-c4nn[nH]n4)cc3)NC(=O)NC2=O)c1=O` (stereo not drawn) [Compound I-42, 5-[4-(2H-tetrazol-5-yl)phenyl]-5-[(3-methyl-2-oxopyridin-1(2H)-yl)methyl]imidazolidine-2,4-dione], the IC50 is < 100 nM.

For `C=Cc1ccc(C2(Cn3cccc(C)c3=O)NC(=O)NC2=O)cc1` (stereo not drawn) [Compound I-43, 5-[(3-methyl-2-oxopyridin-1(2H)-yl)methyl]-5-(4-vinylphenyl)imidazolidine-2,4-dione], the IC50 was < 100 nM.

`Cc1cccn(CC2(c3cc(F)c(F)c(F)c3)NC(=O)NC2=O)c1=O` (stereo not drawn) [Compound I-44, 5-[(3-methyl-2-oxopyridin-1(2H)-yl)methyl]-5-(3,4,5-trifluorophenyl)imidazolidine-2,4-dione]: the half-inhibitory concentration (IC50) is < 100 nM.

Regarding `CCCc1ccc(C2(Cn3cccc(C)c3=O)NC(=O)NC2=O)cc1` (stereo not drawn) [Compound I-45, 5-[(3-methyl-2-oxopyridin-1(2H)-yl)methyl]-5-(4-propylphenyl)imidazolidine-2,4-dione], the IC50 is < 100 nM.

In the case of `O=C1NC(=O)C(Cn2ccccc2=O)(c2ccccc2)N1` (stereo not drawn) [Compound I-46, 5-[(2-oxopyridin-1(2H)-yl)methyl]-5-phenylimidazolidine-2,4-dione], the IC50 was < 100 nM.

Take `COc1ccc(C2(Cn3ccccc3=O)NC(=O)NC2=O)cc1` (stereo not drawn) [Compound I-47, 5-(4-methoxyphenyl)-5-[(2-oxopyridin-1(2H)-yl)methyl]imidazolidine-2,4-dione]: the concentration for half-maximal inhibition (IC50) is < 100 nM.

Regarding `O=C1NC(=O)C(Cn2cccc(F)c2=O)(c2ccc(F)cc2)N1` (stereo not drawn) [Compound I-48, 5-[(3-fluoro-2-oxopyridin-1(2H)-yl)methyl]-5-(4-fluorophenyl)-imidazolidine-2,4-dione], the IC50 was < 100 nM.

Consider `O=C1NC(=O)C(Cn2cccc(F)c2=O)(c2ccc(-c3ccccc3)cc2)N1` (stereo not drawn) [Compound I-49, 5-([1,1′-biphenyl]-4-yl)-5-[(3-fluoro-2-oxopyridin-1(2H)-yl)methyl]imidazolidine-2,4-dione], for which the IC50 was < 100 nM.

Turning to `O=C1NC(=O)C(Cn2cccc(Cl)c2=O)(c2ccccc2)N1` (stereo not drawn) [Compound I-50, 5-[(3-chloro-2-oxopyridin-1(2H)-yl)methyl]-5-phenylimidazolidine-2,4-dione], the IC50 was < 100 nM.

With `O=C1NC(=O)C(Cn2cccc(Cl)c2=O)(c2cc3ccccc3o2)N1` (stereo not drawn) [Compound I-51, 5-(benzofuran-2-yl)-5-[(3-chloro-2-oxopyridin-1(2H)-yl)methyl]imidazolidine-2,4-dione], the half-maximal inhibitory concentration (IC50) was < 100 nM.

`COc1ccc(C2(Cn3cccc(Br)c3=O)NC(=O)NC2=O)cc1` (stereo not drawn) [Compound I-52, 5-[(3-bromo-2-oxopyridin-1(2H)-yl)methyl]-5-(4-methoxyphenyl)imidazolidine-2,4-dione]: the half-maximal inhibitory concentration (IC50) is < 100 nM.

In turn, `CCc1cccn(CC2(c3ccc(OC)cc3)NC(=O)NC2=O)c1=O` (stereo not drawn) [Compound I-53, 5-[(3-ethyl-2-oxopyridin-1(2H)-yl)methyl]-5-(4-methoxyphenyl)imidazolidine-2,4-dione] showed an IC50 of 100 to 1000 nM.

As to `Cc1cccn(CC2(c3cccc(O)c3)NC(=O)NC2=O)c1=O` (stereo not drawn) [Compound I-54, 5-(3-hydroxyphenyl)-5-[(3-methyl-2-oxopyridin-1(2H)-yl)methyl]imidazolidine-2,4-dione], the IC50 lay in the range of 100 to 1000 nM.

In the case of `Cc1cccn(CC2(c3ccncc3)NC(=O)NC2=O)c1=O` (stereo not drawn) [Compound I-55], the concentration for half-maximal inhibition (IC50) is < 100 nM.

Turning to `Cc1cccn(CC2(c3ccc4ccccc4c3)NC(=O)NC2=O)c1=O` (stereo not drawn) [Compound I-56], the 50% inhibitory concentration (IC50) is < 100 nM.

Consider `Cc1cccn(CC2(c3cccc(Br)c3)NC(=O)NC2=O)c1=O` (stereo not drawn) [Compound I-57], for which the concentration for half-maximal inhibition (IC50) is < 100 nM.

Consider `Cc1cccn(CC2(c3cccc(OCc4ccccc4)c3)NC(=O)NC2=O)c1=O` (stereo not drawn) [Compound I-58], for which the IC50 is < 100 nM.

As for `Cc1cccn(CC2(c3ccc4c(c3)OCCO4)NC(=O)NC2=O)c1=O` (stereo not drawn) [Compound I-59], the half-inhibitory concentration (IC50) is < 100 nM.

Regarding `COc1ccccc1C1(Cn2cccc(C)c2=O)NC(=O)NC1=O` (stereo not drawn) [Compound I-60], the 50% inhibitory concentration (IC50) was 100 to 1000 nM.

For the compound `Cc1cccn(CC2(c3ccc(F)cc3F)NC(=O)NC2=O)c1=O` (stereo not drawn) [Compound I-61], the IC50 lay in the range of 100 to 1000 nM.

For `Cc1cccn(CC2(c3cccc(C#CC(C)(C)C)c3)NC(=O)NC2=O)c1=O` (stereo not drawn) [Compound I-63], the IC50 lay in the range of 100 to 1000 nM.

Turning to `Cc1cccn(CC2(c3ccc4c(c3)OCO4)NC(=O)NC2=O)c1=O` (stereo not drawn) [Compound I-65], the IC50 was < 100 nM.

Turning to `Cc1cccn(CC2(c3ccc(C4CCCCC4)cc3)NC(=O)NC2=O)c1=O` (stereo not drawn) [Compound I-66], the IC50 is < 100 nM.

Take `Cc1cccn(CC2(c3cccc(OC(F)(F)F)c3)NC(=O)NC2=O)c1=O` (stereo not drawn) [Compound I-67]: the IC50 was < 100 nM.

`Cc1cccn(CC2(c3ccccc3OCc3ccccc3)NC(=O)NC2=O)c1=O` (stereo not drawn) [Compound I-68] had an IC50 of 100 to 1000 nM.

For the compound `COc1ccc(F)cc1C1(Cn2cccc(C)c2=O)NC(=O)NC1=O` (stereo not drawn) [Compound I-69], the IC50 is < 100 nM.

`COc1cc(C)c(Cl)cc1C1(Cn2cccc(C)c2=O)NC(=O)NC1=O` (stereo not drawn) [Compound I-70] showed an IC50 of 100 to 1000 nM.

Turning to `Cc1cccn(CC2(c3cccc(C#CCN(C)C)c3)NC(=O)NC2=O)c1=O` (stereo not drawn) [Compound I-71], the IC50 is < 100 nM.

As to `COc1ccc(-c2ccc(C3(Cn4cccc(C)c4=O)NC(=O)NC3=O)cc2)cc1` (stereo not drawn) [Compound I-72], the IC50 is < 100 nM.

For the compound `COc1cccc(-c2ccc(C3(Cn4cccc(C)c4=O)NC(=O)NC3=O)cc2)c1` (stereo not drawn) [Compound I-73], the IC50 was < 100 nM.

On to `COc1ccccc1-c1ccc(C2(Cn3cccc(C)c3=O)NC(=O)NC2=O)cc1` (stereo not drawn) [Compound I-74], for which the IC50 was < 100 nM.

Take `Cc1cccn(CC2(c3ccc(-c4ccc(F)cc4)cc3)NC(=O)NC2=O)c1=O` (stereo not drawn) [Compound I-75]: the 50% inhibitory concentration (IC50) is < 100 nM.

Take `COc1ccc(C)cc1C1(Cn2cccc(C)c2=O)NC(=O)NC1=O` (stereo not drawn) [Compound I-76]: the IC50 was 100 to 1000 nM.

Consider `Cc1cccn(CC2(c3ccc4c(c3)CCCC4)NC(=O)NC2=O)c1=O` (stereo not drawn) [Compound I-77], for which the IC50 is < 100 nM.

Take `Cc1cccn(CC2(c3ccc(OC(F)F)cc3)NC(=O)NC2=O)c1=O` (stereo not drawn) [Compound I-78]: the half-inhibitory concentration (IC50) is < 100 nM.

With `Cc1cccn(CC2(c3ccc(OC(F)(F)F)cc3)NC(=O)NC2=O)c1=O` (stereo not drawn) [Compound I-79], the IC50 was < 100 nM.

For `Cc1cccc(Oc2ccc(C3(Cn4cccc(C)c4=O)NC(=O)NC3=O)cc2)c1` (stereo not drawn) [Compound I-80], the concentration for half-maximal inhibition (IC50) is < 100 nM.

Take `COc1ccc(Oc2ccc(C3(Cn4cccc(C)c4=O)NC(=O)NC3=O)cc2)cc1` (stereo not drawn) [Compound I-81]: the half-maximal inhibitory concentration (IC50) was < 100 nM.

In the case of `Cc1cccn(CC2(c3ccc(Oc4ccc(Cl)cc4)cc3)NC(=O)NC2=O)c1=O` (stereo not drawn) [Compound I-82], the IC50 is < 100 nM.

Consider `COc1cccc(Oc2ccc(C3(Cn4cccc(C)c4=O)NC(=O)NC3=O)cc2)c1` (stereo not drawn) [Compound I-83], for which the 50% inhibitory concentration (IC50) was < 100 nM.

Take `Cc1cccn(CC2(c3ccc(Oc4ccccc4)c(F)c3)NC(=O)NC2=O)c1=O` (stereo not drawn) [Compound I-87]: the 50% inhibitory concentration (IC50) is < 100 nM.

`Cc1cccn(CC2(c3ccc(OCc4ccc(F)cc4)cc3)NC(=O)NC2=O)c1=O` (stereo not drawn) [Compound I-88]: the IC50 is < 100 nM.

As to `Cc1cccn(CC2(c3ccc(C(F)(F)F)cc3)NC(=O)NC2=O)c1=O` (stereo not drawn) [Compound I-89], the IC50 is < 100 nM.

`Cc1noc(C)c1-c1ccc(C2(Cn3cccc(C)c3=O)NC(=O)NC2=O)cc1` (stereo not drawn) [Compound I-90]: the half-inhibitory concentration (IC50) was < 100 nM.

For the compound `COc1ccncc1-c1ccc(C2(Cn3cccc(C)c3=O)NC(=O)NC2=O)cc1` (stereo not drawn) [Compound I-91], the IC50 was < 100 nM.

On to `Cc1cccn(CC2(c3ccc(-c4ccccn4)cc3)NC(=O)NC2=O)c1=O` (stereo not drawn) [Compound I-92], for which the half-maximal inhibitory concentration (IC50) was < 100 nM.

Regarding `Cc1cccn(CC2(c3cccc(-c4ccc(F)cn4)c3)NC(=O)NC2=O)c1=O` (stereo not drawn) [Compound I-93], the concentration for half-maximal inhibition (IC50) is < 100 nM.

Usually IC50 stands for the concentration that inhibits the measured activity by half. A higher IC50 goes with weaker potency in that assay.

The record behind these values is patent US10000476B2, “Pyridone derivative, pharmaceutical containing the same and methods of use thereof” (KAKEN PHARMACEUTICAL CO., LTD., priority 2011, dated 2018).
